# Laboratory results reported in ChEMBL document CHEMBL4052645, “Discovery of potent and efficacious pyrrolopyridazines as dual JAK1/3 inhibitors” (Bioorg Med Chem Lett, 2017).
# Legend:
# [1] = target: Tyrosine-protein kinase JAK3 (Homo sapiens) (UniProt P52333); assay: Inhibition of human JAK3 D2 domain (I781 to S1124 residues) expressed in mammalian expression system assessed as residual activity at 50 nM by KINOMEscan assay relative to control
# [2] = target: Phosphatidylinositol 4-phosphate 5-kinase type-1 alpha (Homo sapiens) (UniProt Q99755); assay: Inhibition of human PIP5K1A (M1 to H562 residues) expressed in bacterial expression system assessed as residual activity at 50 nM by KINOMEscan assay relative to control
# [3] = target: Protein kinase C theta type (Homo sapiens) (UniProt Q04759); assay: Inhibition of wild-type human partial length PKCT (L350 to S706 residues) expressed in bacterial expression system assessed as residual activity at 50 nM by Kinomescan method relative to control
# Chain of Protein kinase C theta type (Homo sapiens) (Q04759 whole entry, looked up, the tested form may be a part): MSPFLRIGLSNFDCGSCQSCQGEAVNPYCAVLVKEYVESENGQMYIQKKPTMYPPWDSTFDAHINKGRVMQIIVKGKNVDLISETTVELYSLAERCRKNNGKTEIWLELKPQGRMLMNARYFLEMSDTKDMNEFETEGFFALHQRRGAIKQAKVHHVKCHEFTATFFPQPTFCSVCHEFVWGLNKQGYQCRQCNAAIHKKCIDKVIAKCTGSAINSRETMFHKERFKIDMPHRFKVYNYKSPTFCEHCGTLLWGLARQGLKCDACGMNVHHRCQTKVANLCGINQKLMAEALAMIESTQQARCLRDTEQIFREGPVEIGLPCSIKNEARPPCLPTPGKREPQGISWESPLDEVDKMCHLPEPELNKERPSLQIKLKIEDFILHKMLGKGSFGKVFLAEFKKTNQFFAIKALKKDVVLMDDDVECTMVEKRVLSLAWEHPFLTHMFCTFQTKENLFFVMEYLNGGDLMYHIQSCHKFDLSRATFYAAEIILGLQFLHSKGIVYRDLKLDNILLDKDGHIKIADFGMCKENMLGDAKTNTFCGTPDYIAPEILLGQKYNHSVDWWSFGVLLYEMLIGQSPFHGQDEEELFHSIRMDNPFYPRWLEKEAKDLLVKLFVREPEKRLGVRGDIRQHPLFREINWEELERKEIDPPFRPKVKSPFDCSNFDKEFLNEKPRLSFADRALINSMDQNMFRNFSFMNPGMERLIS
# [4] = target: Uncharacterized serine/threonine-protein kinase SBK3 (Homo sapiens) (UniProt P0C264); assay: Inhibition of wild-type human partial length SGK110 (L22 to R329 residues) expressed in bacterial expression system assessed as residual activity at 50 nM by Kinomescan method relative to control
# [5] = target: Phosphatidylinositol 4,5-bisphosphate 3-kinase catalytic subunit delta isoform (Homo sapiens) (UniProt O00329); assay: Inhibition of wild-type human partial length PIK3CD (R108 to Q1044 residues) expressed in mammalian expression system assessed as residual activity at 50 nM by Kinomescan method relative to control
# [6] = target: Phosphatidylinositol 5-phosphate 4-kinase type-2 beta (Homo sapiens) (UniProt P78356); assay: Inhibition of wild-type human full length PIP5K2B (M1 to T416 residues) expressed in bacterial expression system assessed as residual activity at 50 nM by Kinomescan method relative to control
# [7] = target: Cyclin-dependent kinase 18 (Homo sapiens) (UniProt Q07002); assay: Inhibition of wild-type human full length PCTAIRE3 (M3 to F474 residues) expressed in bacterial expression system assessed as residual activity at 50 nM by Kinomescan method relative to control
# [8] = target: Receptor-type tyrosine-protein kinase FLT3 (Homo sapiens) (UniProt P36888); assay: Inhibition of wild-type human partial length FLT3 (V592 to Y969 residues) expressed in bacterial expression system assessed as residual activity at 50 nM by Kinomescan method relative to control
# [9] = target: Serine/threonine-protein kinase Nek2 (Homo sapiens) (UniProt P51955); assay: Inhibition of wild-type human partial length NEK2 (M1 to K309 residues) expressed in bacterial expression system assessed as residual activity at 50 nM by Kinomescan method relative to control
# Chain of Serine/threonine-protein kinase Nek2 (Homo sapiens) (P51955 whole entry, the tested form may be a part): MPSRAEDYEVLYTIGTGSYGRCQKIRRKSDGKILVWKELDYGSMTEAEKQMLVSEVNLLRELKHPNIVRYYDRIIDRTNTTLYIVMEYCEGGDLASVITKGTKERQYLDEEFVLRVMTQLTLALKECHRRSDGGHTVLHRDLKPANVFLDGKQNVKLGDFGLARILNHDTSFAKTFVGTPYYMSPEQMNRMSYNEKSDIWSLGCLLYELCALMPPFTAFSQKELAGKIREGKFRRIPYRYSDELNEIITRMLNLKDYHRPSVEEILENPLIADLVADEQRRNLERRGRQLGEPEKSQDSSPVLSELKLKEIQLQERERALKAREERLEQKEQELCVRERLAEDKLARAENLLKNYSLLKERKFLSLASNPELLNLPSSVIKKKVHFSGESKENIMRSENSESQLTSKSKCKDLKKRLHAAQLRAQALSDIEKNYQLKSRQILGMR
# [10] = target: Wee1-like protein kinase 2 (Homo sapiens) (UniProt P0C1S8); assay: Inhibition of wild-type human partial length WEE1B (M204 to K492 residues) expressed in bacterial expression system assessed as residual activity at 50 nM by Kinomescan method relative to control
# [11] = target: MAP/microtubule affinity-regulating kinase 4 (Homo sapiens) (UniProt Q96L34); assay: Inhibition of wild-type human partial length MARK4 (K29 to G340 residues) expressed in bacterial expression system assessed as residual activity at 50 nM by Kinomescan method relative to control
# [12] = target: Dual specificity mitogen-activated protein kinase kinase 1 (Homo sapiens) (UniProt Q02750); assay: Inhibition of wild-type human full length MAP2K1 (M1 to V393 residues) expressed in mammalian expression system assessed as residual activity at 50 nM by Kinomescan method relative to control
# [13] = target: High affinity nerve growth factor receptor (Homo sapiens) (UniProt P04629); assay: Inhibition of wild-type human partial length TRKA (G475 to G790 residues) expressed in mammalian expression system assessed as residual activity at 50 nM by Kinomescan method relative to control
# [14] = target: Serine/threonine-protein kinase Nek11 (Homo sapiens) (UniProt Q8NG66); assay: Inhibition of wild-type human partial length NEK11 (M1 to E313 residues) expressed in mammalian expression system assessed as residual activity at 50 nM by Kinomescan method relative to control
# Chain of Serine/threonine-protein kinase Nek11 (Homo sapiens) (Q8NG66 whole entry, the tested form may be a part): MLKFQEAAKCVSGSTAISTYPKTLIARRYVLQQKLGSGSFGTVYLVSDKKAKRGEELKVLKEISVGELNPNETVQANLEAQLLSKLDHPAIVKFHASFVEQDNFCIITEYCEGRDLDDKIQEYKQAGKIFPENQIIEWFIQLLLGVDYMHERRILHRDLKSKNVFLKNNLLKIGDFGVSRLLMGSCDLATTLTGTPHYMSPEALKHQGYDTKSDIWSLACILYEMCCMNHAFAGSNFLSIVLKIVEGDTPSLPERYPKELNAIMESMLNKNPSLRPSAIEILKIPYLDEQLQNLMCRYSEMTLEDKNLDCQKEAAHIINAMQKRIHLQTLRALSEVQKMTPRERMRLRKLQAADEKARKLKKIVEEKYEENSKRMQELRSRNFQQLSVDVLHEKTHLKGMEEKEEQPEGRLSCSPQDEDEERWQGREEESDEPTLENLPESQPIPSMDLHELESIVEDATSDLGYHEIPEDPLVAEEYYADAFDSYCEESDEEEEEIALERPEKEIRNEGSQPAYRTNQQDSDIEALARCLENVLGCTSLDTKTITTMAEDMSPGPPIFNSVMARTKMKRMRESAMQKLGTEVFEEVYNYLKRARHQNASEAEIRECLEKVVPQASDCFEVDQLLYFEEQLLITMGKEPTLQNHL
# [15] = target: Tyrosine-protein kinase receptor UFO (Homo sapiens) (UniProt P30530); assay: Inhibition of wild-type human partial length AXL (R497 to Y821 residues) expressed in bacterial expression system assessed as residual activity at 50 nM by Kinomescan method relative to control
# [16] = target: Phosphatidylinositol 4-kinase beta (Homo sapiens) (UniProt Q9UBF8); assay: Inhibition of wild-type human full length PIK4CB (M1 to M828 residues) expressed in mammalian expression system assessed as residual activity at 50 nM by Kinomescan method relative to control
# [17] = target: Serine/threonine-protein kinase 38 (Homo sapiens) (UniProt Q15208); assay: Inhibition of wild-type human partial length NDR1 (N33 to E449 residues) expressed in mammalian expression system assessed as residual activity at 50 nM by Kinomescan method relative to control
# [18] = target: Serine/threonine-protein kinase pim-3 (Homo sapiens) (UniProt Q86V86); assay: Inhibition of wild-type human partial length PIM3 (G16 to A317 residues) expressed in bacterial expression system assessed as residual activity at 50 nM by Kinomescan method relative to control
# [19] = target: Tyrosine-protein kinase Tec (Homo sapiens) (UniProt P42680); assay: Inhibition of wild-type human partial length TEC (L341 to D620 residues) expressed in bacterial expression system assessed as residual activity at 50 nM by Kinomescan method relative to control
# [20] = target: Ephrin type-A receptor 5 (Homo sapiens) (UniProt P54756); assay: Inhibition of wild-type human partial length EPHA5 (T627 to V930 residues) expressed in bacterial expression system assessed as residual activity at 50 nM by Kinomescan method relative to control
# Chain of Ephrin type-A receptor 5 (Homo sapiens) (P54756 whole entry, the tested form may be a part): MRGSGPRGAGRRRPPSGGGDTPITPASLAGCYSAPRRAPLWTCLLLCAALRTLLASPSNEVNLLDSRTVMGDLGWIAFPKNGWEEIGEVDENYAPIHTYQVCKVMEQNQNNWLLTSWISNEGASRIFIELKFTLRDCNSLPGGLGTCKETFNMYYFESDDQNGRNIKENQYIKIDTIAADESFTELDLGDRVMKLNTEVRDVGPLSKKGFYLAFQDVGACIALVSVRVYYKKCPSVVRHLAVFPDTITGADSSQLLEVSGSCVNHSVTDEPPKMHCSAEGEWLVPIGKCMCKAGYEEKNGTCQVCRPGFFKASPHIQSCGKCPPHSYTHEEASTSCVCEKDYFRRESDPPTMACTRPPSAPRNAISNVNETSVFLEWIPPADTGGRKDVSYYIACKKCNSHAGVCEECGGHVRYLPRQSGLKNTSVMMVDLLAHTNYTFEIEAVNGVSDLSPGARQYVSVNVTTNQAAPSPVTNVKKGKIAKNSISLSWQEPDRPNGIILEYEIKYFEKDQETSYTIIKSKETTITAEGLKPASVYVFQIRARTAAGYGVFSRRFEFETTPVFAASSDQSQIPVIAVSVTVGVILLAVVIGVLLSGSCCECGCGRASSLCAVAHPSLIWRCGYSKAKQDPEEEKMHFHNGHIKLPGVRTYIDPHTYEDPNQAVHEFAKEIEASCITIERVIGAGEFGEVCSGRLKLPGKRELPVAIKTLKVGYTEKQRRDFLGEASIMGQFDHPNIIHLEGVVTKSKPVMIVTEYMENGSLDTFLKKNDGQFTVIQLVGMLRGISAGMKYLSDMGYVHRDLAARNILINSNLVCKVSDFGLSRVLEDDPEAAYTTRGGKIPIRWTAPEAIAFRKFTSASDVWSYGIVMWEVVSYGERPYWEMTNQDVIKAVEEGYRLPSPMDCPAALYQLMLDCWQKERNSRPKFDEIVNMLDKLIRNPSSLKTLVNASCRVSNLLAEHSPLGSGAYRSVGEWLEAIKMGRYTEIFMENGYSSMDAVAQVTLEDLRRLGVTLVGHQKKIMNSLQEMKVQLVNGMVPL
# [21] = target: Ephrin type-A receptor 6 (Homo sapiens) (UniProt Q9UF33); assay: Inhibition of wild-type human partial length EPHA6 (Y700 to E1046 residues) expressed in bacterial expression system assessed as residual activity at 50 nM by Kinomescan method relative to control
# Chain of Ephrin type-A receptor 6 (Homo sapiens) (Q9UF33 whole entry, the tested form may be a part): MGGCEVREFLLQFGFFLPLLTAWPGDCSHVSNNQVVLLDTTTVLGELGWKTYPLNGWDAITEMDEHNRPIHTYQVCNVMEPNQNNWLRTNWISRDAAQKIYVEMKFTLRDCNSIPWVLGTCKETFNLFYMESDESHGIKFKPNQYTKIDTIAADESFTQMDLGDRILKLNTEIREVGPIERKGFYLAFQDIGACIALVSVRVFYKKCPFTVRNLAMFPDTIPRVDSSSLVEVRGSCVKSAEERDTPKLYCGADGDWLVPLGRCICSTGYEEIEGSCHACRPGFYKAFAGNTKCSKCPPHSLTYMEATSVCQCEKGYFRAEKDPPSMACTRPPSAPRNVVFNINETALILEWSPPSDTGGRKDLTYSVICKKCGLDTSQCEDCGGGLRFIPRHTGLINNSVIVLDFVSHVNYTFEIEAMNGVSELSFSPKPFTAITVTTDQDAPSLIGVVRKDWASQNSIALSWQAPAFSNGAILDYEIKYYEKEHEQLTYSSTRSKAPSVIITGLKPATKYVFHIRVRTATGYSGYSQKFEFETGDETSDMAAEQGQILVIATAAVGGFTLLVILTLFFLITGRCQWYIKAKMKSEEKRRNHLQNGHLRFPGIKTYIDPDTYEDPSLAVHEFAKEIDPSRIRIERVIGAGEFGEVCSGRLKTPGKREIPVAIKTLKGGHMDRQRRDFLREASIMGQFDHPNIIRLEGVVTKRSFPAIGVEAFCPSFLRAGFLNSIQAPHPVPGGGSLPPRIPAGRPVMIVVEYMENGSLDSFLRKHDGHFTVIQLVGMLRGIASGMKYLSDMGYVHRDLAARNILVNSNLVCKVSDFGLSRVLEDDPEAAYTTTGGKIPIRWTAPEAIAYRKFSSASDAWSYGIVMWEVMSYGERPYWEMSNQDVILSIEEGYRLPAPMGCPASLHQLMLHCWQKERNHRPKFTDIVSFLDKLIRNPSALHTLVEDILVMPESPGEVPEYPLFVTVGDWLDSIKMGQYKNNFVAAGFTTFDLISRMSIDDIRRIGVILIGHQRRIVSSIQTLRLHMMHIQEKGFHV
# [22] = target: Serine/threonine-protein kinase MAK (Homo sapiens) (UniProt P20794); assay: Inhibition of wild-type human partial length MAK (M1 to P314 residues) expressed in bacterial expression system assessed as residual activity at 50 nM by Kinomescan method relative to control
# [23] = target: Dual specificity mitogen-activated protein kinase kinase 4 (Homo sapiens) (UniProt P45985); assay: Inhibition of wild-type human partial length MAP2K4 (S84 to D399 residues) expressed in mammalian expression system assessed as residual activity at 50 nM by Kinomescan method relative to control
# [24] = target: Serine/threonine-protein kinase Nek5 (Homo sapiens) (UniProt Q6P3R8); assay: Inhibition of wild-type human partial length NEK5 (M1 to M279 residues) expressed in bacterial expression system assessed as residual activity at 50 nM by Kinomescan method relative to control
# [25] = target: TGF-beta receptor type-1 (Homo sapiens) (UniProt P36897); assay: Inhibition of wild-type human partial length TGFBR1 (D179 to M503 residues) expressed in bacterial expression system assessed as residual activity at 50 nM by Kinomescan method relative to control
# Chain of Tyrosine-protein kinase JAK3 (Homo sapiens) (P52333 whole entry, the tested form may be a part): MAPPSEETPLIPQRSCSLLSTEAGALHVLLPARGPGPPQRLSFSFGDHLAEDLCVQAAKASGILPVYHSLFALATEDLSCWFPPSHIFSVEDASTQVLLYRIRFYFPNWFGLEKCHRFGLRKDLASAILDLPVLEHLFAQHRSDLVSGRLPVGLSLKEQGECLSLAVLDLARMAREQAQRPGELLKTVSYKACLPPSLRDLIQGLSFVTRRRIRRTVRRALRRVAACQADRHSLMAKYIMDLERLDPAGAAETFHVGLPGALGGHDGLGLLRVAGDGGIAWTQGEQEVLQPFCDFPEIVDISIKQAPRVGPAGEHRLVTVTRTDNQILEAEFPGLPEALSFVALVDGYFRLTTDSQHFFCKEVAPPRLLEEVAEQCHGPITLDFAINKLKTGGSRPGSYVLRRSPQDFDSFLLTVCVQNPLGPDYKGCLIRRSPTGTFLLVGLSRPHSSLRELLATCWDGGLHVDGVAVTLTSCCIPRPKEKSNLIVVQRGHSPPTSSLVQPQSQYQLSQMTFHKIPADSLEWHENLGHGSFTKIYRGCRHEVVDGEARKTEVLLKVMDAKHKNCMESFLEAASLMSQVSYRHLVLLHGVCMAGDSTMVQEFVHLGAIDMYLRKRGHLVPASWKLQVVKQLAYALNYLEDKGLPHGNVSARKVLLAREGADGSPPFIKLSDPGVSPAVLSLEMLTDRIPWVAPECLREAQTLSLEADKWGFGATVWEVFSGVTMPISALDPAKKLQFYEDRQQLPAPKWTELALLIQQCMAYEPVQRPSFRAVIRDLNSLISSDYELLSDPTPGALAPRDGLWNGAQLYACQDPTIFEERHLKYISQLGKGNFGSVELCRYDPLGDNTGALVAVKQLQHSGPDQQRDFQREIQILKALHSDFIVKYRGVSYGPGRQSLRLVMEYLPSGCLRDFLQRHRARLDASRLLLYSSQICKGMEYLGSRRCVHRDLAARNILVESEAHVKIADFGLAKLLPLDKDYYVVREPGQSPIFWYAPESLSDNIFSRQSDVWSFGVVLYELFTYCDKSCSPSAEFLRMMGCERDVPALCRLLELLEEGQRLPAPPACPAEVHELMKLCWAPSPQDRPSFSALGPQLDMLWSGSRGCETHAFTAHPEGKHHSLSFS
Compound,Activity [1] [%],Activity [2] [%],Activity [3] [%],Activity [4] [%],Activity [5] [%],Activity [6] [%],Activity [7] [%],Activity [8] [%],Activity [9] [%],Activity [10] [%],Activity [11] [%],Activity [12] [%],Activity [13] [%],Activity [14] [%],Activity [15] [%],Activity [16] [%],Activity [17] [%],Activity [18] [%],Activity [19] [%],Activity [20] [%],other results
CC1(C)[C@H](Nc2c(C(N)=O)cnn3cc(-c4ccccc4)cc23)CC[C@]1(C)N,3.8,8.8,38,41,44,47,58,72,72,73,79,80,83,87,90,90,92,92,99,100,Activity [21]: 100%; Activity [22]: 100%; Activity [23]: 100%; Activity [24]: 100%; Activity [25]: 100%
COc1ccc(-c2cc3c(N[C@@H]4CC[C@](C)(N)C4(C)C)c(C(N)=O)cnn3c2)cn1,40,17,74,62,100,72,100,90,93,98,93,94,100,99,96,100,99,72,100,100,Activity [21]: 95%; Activity [22]: 100%; Activity [23]: 100%; Activity [24]: 100%; Activity [25]: 95%
